# Data taken from ChEMBL document CHEMBL1201862, “PubChem BioAssay data set” (2004).
# Activity calls are given as the source filed them.
# What was measured:
# [1] = target: Glucose-6-phosphate 1-dehydrogenase (Homo sapiens, UniProt P11413); assay: inhibition of Homo sapiens G6PD, dose series – biochemical, fluorescence, selectivity assay for P. falciparum G6PD inhibitor project, dose response (AID 504792); assay type: functional
# [2] = target: Cystic fibrosis transmembrane conductance regulator/Golgi-associated PDZ and coiled-coil motif-containing protein (Homo sapiens, UniProt P13569+Q9HD26); assay: potency against CAL PDZ-peptide interaction – biochemical, fluorescence polarization, Cerulean-tagged CAL PDZ, cherry-picks, dose response (AID 504773)
# Nonstructural protein 1 = Nonstructural protein 1 (Influenza A virus, UniProt Q194T2); assay type: functional, Influenza A virus (A/California/07/2009(H1N1))
# Nonstructural protein 1, sequence (Q194T2 whole entry): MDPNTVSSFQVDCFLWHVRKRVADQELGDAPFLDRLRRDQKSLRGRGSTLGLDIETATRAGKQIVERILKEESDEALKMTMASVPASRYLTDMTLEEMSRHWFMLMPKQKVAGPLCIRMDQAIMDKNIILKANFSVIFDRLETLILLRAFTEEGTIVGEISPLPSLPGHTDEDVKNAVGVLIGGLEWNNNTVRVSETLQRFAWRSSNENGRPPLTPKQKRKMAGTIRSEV
# [3] = target: Heat shock protein HSP 90-alpha (Homo sapiens, UniProt P07900); assay type: functional, organism-based
# [4] = HGIII-sPLA2 enzyme inhibition potency – biochemical, QFRET, IC50, dose response (AID 743457);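 further: green fluorescence rise as the enzyme cleaves BODIPY PC-A2 in liposomes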
# [5] = target: 1-acylglycerol-3-phosphate O-acyltransferase ABHD5/Perilipin-5 (Homo sapiens, UniProt Q00G26+Q8WTS1); assay: Luminescence-based biochemical high throughput dose response assay for inhibitors of the interaction of the lipase co-activator protein, abhydrolase domain containing 5 (ABHD5) with perilipin-5 (MLDP; PLIN5) (2K validation set). [Related pubchem assays (depositor defined):AID493035, AID493241]
# 1-acylglycerol-3-phosphate O-acyltransferase ABHD5/Perilipin-5, sequence (Q00G26 whole entry, the tested form may be a part): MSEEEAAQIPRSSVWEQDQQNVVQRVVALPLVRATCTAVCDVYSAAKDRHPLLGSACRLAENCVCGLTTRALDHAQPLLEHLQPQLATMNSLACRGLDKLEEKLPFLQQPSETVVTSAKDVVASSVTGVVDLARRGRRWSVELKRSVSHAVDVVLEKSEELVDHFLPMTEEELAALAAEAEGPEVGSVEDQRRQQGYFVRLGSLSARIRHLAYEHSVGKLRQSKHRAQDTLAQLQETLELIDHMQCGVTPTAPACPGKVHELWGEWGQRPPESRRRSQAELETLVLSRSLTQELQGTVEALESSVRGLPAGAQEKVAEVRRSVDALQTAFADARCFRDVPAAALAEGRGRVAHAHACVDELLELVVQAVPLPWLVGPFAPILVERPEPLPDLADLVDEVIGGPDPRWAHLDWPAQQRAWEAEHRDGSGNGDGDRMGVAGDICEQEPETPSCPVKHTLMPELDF
# 1-acylglycerol-3-phosphate O-acyltransferase ABHD5/Perilipin-5, sequence (Q8WTS1 whole entry, the tested form may be a part): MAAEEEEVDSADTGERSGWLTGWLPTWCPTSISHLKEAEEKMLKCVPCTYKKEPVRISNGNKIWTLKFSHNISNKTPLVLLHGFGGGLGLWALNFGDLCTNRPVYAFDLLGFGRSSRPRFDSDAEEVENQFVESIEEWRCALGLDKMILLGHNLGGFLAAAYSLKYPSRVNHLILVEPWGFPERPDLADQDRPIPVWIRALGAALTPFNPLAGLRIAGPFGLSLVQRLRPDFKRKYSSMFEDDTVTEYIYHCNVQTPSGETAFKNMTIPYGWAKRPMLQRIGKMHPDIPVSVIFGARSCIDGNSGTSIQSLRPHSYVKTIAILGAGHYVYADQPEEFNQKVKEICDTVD
# Perilipin-1/ABHD5 = Perilipin-1/ABHD5 (Homo sapiens, UniProt O60240+Q8WTS1); assay: Luminescence-based biochemical high throughput dose response assay for inhibitors of the interaction of the lipase co-activator protein, abhydrolase domain containing 5 (ABHD5) with perilipin-1 (PLIN1) (2K validation set). [Related pubchem assays (depositor defined):AID493027, AID493057]
# Hexokinase HKDC1 = target: T1, Hexokinase HKDC1 (Homo sapiens, UniProt Q2TB90); assay: inhibition of HKDC1 glucose phosphorylation – biochemical, W721R variant, dose response (AID 504729); assay type: functional
# T1 sequence (Q2TB90 whole entry): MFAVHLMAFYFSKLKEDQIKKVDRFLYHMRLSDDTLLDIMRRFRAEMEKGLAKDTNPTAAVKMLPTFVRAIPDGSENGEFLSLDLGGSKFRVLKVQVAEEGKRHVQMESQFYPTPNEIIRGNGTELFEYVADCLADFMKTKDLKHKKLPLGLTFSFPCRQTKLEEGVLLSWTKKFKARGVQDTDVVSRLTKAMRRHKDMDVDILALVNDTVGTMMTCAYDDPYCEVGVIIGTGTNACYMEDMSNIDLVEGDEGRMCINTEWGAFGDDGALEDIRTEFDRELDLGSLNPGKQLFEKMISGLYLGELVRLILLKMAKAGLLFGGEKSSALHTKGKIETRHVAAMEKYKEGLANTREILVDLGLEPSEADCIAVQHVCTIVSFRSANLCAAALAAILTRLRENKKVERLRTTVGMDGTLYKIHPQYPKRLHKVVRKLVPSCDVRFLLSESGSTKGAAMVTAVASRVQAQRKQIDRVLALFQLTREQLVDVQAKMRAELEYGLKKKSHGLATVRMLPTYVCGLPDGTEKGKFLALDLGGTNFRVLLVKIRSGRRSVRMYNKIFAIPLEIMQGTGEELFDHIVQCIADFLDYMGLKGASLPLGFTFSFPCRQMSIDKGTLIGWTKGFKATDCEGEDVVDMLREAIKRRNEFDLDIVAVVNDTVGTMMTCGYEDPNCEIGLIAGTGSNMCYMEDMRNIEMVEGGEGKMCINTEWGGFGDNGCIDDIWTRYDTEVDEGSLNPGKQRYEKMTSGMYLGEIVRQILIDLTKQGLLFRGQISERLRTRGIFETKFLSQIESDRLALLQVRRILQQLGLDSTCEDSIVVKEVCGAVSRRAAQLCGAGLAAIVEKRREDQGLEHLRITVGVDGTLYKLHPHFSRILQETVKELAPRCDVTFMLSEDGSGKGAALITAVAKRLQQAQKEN
# Tumor necrosis factor = Tumor necrosis factor (Homo sapiens, UniProt P01375); assay: analog potency on TNFa NF-kB signaling – cell-based, revised, SAR follow-up (AID 2337); assay type: functional
# Tumor necrosis factor, sequence (P01375 whole entry, the tested form may be a part): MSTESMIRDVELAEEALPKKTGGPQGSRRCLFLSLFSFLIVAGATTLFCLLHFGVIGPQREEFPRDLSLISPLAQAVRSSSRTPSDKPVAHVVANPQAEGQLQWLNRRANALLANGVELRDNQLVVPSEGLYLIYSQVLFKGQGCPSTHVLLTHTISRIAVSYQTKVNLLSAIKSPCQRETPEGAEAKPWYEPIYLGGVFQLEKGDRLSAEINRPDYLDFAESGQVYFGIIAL
# [6] = target: Nucleotide-binding oligomerization domain-containing protein 1 (Homo sapiens, UniProt Q9Y239); assay: blockers of NOD1 pathway activity – revised, SAR follow-up (AID 2333); assay type: functional
# Nucleotide-binding oligomerization domain-containing protein 1, sequence (Q9Y239 whole entry, the tested form may be a part): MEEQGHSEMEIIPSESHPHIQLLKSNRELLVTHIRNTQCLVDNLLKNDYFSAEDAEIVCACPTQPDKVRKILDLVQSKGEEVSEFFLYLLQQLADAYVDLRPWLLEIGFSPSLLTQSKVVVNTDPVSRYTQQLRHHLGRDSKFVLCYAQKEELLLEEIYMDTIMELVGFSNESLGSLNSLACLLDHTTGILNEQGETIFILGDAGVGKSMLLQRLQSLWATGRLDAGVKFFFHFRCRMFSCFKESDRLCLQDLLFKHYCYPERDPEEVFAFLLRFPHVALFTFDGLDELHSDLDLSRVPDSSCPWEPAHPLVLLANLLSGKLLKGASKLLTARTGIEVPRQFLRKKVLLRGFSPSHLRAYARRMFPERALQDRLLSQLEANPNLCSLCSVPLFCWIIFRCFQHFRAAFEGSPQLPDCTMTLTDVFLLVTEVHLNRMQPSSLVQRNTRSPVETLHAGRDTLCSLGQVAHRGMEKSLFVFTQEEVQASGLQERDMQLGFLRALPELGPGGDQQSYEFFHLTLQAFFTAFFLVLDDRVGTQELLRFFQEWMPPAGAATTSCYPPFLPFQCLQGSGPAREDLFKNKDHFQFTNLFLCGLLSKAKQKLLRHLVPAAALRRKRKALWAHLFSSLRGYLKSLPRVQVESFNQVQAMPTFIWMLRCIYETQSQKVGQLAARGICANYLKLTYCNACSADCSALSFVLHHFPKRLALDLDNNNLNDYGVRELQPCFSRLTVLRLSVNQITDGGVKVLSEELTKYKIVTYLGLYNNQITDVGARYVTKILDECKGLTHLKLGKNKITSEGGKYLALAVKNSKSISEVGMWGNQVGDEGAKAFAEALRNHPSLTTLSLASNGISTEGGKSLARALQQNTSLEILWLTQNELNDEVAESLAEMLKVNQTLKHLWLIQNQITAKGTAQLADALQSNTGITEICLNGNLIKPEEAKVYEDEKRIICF
# HEK293 = assay: cells; details: Homo sapiens;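 further: cells exposed to compound for 14 hours overnight before viability readout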
# Mu-type opioid receptor = Mu-type opioid receptor (Homo sapiens, UniProt P35372); assay: SAR Analysis of Antagonists of the MOR Receptor using an Image-Based Assay - Set 3. [Related pubchem assays (depositor defined):AID1777, AID1785, AID1786, AID1966, AID2133, AID2136, AID2284, AID2285, AID2420]; assay type: functional
# Mu-type opioid receptor, sequence (P35372 whole entry): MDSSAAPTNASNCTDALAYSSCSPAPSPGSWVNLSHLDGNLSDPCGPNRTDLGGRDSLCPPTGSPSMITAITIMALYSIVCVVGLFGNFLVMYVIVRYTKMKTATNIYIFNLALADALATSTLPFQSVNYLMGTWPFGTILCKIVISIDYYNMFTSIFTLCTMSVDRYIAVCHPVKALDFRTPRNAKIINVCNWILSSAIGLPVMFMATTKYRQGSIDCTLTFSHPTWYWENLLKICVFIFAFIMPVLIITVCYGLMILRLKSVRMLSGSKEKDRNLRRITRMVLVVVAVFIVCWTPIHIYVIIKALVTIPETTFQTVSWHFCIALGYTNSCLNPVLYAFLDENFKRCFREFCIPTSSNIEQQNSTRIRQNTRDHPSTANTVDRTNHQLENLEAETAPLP
# [7] = target: T2, Kappa-type opioid receptor (Homo sapiens, UniProt P41145); assay: SAR analysis of small molecule antagonists of the kappa opioid receptor via a luminescent beta-arrestin assay - Set 4. [Related pubchem assays (depositor defined):AID1777, AID1778, AID1785, AID1786, AID1966, AID2133, AID2136, AID2285]; assay type: functional
# T2 sequence (P41145 whole entry): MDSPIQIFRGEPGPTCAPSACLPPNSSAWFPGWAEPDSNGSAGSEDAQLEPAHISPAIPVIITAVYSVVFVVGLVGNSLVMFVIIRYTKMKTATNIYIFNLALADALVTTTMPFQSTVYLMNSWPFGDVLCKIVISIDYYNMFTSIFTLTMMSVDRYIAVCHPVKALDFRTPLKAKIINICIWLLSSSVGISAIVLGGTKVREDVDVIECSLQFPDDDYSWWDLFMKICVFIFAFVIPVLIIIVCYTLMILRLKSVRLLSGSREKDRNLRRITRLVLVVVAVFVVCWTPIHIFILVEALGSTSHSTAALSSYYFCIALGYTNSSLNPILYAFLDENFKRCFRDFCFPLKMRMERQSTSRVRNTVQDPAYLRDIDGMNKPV
# [8] = target: Delta-type opioid receptor (Homo sapiens, UniProt P41143); assay: SAR Analysis of Antagonists of the DOR Receptor using an Image-Based Assay - Set 3. [Related pubchem assays (depositor defined):AID1777, AID1785]; assay type: functional;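 further: U2OS cells expressing DOR1 and beta-arrestin GFP stimulated with 100 nM SNC80; imaging of GFP-tagged beta-arrestin moving into spots after receptor activation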
# Delta-type opioid receptor, sequence (P41143 whole entry): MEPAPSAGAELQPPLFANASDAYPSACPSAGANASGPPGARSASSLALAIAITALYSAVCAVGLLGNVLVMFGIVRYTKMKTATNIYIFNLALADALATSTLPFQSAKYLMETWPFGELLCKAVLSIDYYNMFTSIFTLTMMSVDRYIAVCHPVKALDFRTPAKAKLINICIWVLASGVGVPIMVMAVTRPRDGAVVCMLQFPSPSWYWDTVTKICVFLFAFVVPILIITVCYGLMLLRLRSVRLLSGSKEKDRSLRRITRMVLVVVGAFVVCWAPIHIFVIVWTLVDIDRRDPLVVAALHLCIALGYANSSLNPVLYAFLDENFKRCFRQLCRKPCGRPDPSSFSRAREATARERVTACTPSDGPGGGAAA
# [9] = target: T2, Kappa-type opioid receptor; assay: SAR analysis of Antagonists of the Kappa Opioid Receptor (KOR) using an Image-Based Assay - Set 4. [Related pubchem assays (depositor defined):AID1777, AID1785]; assay type: functional
# [10] = HEK-293T cell viability reduction – luminescence, B-cell screen hits, cytotoxicity control for BCR NF-kB inhibitor project, dose response (AID 489021); assay type: functional, cell-based;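 further: HEK-293T cells carrying an NF-kB luciferase reporter; cells exposed to compound for about 14 hours before viability readout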
# Cytochrome P450 2D6 = Cytochrome P450 2D6 (Homo sapiens, UniProt P10635);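 further: CYP2D6 member of a cytochrome P450 panel assay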
# X-box-binding protein 1 = X-box-binding protein 1 (Homo sapiens, UniProt P17861); assay type: functional, Cricetulus griseus;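 further: confirmatory dose-response counter-screen serving a CHOP assay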
# Bcl-2-like protein 10 = Bcl-2-like protein 10 (Homo sapiens, UniProt Q9HD36); assay: Bcl-B/TR3 peptide binding disruption – biochemical, fluorescence polarization, FITC-TR3 peptide, selectivity assay for Bfl-1 inhibitor project, primary screen (AID 748);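 further: fluorescence polarization from a fluorescein-labelled TR3 peptide binding purified Bcl-B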
# Bcl-2-like protein 10, sequence (Q9HD36 whole entry): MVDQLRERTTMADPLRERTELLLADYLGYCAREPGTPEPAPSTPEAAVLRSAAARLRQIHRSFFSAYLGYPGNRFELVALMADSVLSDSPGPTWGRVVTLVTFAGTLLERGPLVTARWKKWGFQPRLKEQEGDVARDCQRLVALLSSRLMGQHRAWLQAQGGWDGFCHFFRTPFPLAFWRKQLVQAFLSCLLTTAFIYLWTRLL
# Estrogen receptor beta = Estrogen receptor beta (Homo sapiens, UniProt Q92731);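 further: recombinant ER-beta bound to coactivator SRC1 peptide in presence of estradiol agonist; inhibitors block coactivator peptide binding and lower the FRET signal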
# [11] = target: Metabotropic glutamate receptor 4 (Rattus norvegicus, UniProt P31423); assay: Modulation of the Metabotropic Glutamate Receptor mGluR4: Rat PAM Potency. [Related pubchem assays (depositor defined):AID2437, AID2807]; assay type: functional
# Leucine aminopeptidase = target: T3, Leucine aminopeptidase (Plasmodium falciparum 3D7, UniProt Q8IL11); assay: P. falciparum M17LAP inhibitors, primary screen, biochemical, fluorogenic H-Leu-NHMec substrate, 1536-well (AID 1619); assay type: functional
# T3 sequence (Q8IL11 whole entry): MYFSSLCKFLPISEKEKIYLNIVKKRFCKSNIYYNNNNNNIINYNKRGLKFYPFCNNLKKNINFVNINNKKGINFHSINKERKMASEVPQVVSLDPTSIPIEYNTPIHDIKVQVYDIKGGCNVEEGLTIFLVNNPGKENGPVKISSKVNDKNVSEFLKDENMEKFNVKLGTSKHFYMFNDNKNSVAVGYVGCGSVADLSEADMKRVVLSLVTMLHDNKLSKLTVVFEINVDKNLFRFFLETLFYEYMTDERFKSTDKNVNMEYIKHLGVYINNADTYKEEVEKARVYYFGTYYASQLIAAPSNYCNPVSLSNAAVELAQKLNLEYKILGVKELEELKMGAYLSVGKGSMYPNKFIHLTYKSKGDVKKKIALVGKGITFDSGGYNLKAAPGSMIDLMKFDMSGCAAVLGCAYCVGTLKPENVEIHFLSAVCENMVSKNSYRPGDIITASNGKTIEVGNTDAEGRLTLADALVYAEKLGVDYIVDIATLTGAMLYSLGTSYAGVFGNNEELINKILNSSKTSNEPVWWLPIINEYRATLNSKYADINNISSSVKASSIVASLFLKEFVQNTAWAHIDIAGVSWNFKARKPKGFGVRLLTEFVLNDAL
# [12] = target: T4, RNA-binding protein pos-1 (Caenorhabditis elegans, UniProt G5EF15); assay: disruptors of C. elegans POS-1 RNA interaction – biochemical, fluorescence polarization, dose response (AID 1964);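 further: purified POS-1 fused to maltose binding protein made in E. coli; potency of compounds blocking POS-1 binding to fluorescent RNA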
# T4 sequence (G5EF15 whole entry): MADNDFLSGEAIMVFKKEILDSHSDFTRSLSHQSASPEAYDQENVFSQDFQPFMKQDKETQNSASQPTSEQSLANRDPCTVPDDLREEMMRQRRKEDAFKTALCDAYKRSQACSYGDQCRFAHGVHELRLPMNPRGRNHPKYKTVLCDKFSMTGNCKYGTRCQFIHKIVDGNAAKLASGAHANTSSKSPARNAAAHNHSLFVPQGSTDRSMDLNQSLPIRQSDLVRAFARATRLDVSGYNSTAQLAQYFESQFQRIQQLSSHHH
# SUMO-activating enzyme [13] = target: T5, SUMO-activating enzyme (Homo sapiens, UniProt Q9UBT2); assay: blockers of UBC9-mediated SUMO conjugation – biochemical, AlphaScreen, SUMOylation inhibitor project, confirmation (AID 2018); assay type: functional
# T5 sequence (Q9UBE0 whole entry): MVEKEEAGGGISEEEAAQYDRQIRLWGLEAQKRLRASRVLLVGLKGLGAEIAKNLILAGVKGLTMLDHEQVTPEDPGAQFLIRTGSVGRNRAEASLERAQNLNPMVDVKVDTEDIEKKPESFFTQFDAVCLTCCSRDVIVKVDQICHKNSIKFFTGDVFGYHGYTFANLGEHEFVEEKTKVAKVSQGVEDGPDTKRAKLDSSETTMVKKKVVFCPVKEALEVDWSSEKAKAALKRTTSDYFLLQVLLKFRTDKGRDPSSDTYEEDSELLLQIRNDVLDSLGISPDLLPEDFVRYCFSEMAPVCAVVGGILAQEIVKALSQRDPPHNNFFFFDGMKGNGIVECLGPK
# T5 sequence (Q9UBT2 whole entry): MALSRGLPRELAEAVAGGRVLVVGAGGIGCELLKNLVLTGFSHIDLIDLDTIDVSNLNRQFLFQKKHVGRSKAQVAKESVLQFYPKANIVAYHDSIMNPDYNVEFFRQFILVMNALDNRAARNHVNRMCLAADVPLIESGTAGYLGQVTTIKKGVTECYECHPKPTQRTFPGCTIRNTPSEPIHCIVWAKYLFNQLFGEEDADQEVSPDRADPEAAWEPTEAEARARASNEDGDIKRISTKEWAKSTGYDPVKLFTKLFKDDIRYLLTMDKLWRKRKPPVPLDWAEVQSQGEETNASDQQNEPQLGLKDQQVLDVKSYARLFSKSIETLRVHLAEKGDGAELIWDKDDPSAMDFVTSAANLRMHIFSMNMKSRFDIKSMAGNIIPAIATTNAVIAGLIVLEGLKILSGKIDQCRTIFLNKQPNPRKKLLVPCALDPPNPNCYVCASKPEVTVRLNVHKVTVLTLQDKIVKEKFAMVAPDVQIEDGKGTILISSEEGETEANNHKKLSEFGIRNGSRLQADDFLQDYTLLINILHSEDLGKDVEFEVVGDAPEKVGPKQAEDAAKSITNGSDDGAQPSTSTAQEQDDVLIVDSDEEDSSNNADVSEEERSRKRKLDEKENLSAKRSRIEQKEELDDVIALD
# [14] = target: T6, Zinc finger protein mex-5 (Caenorhabditis elegans, UniProt Q9XUB2); assay: potency of MEX-5 RNA-binding blockers – biochemical, C. elegans, fluorescence polarization, dose response (AID 1960)
# T6 sequence (Q9XUB2 whole entry): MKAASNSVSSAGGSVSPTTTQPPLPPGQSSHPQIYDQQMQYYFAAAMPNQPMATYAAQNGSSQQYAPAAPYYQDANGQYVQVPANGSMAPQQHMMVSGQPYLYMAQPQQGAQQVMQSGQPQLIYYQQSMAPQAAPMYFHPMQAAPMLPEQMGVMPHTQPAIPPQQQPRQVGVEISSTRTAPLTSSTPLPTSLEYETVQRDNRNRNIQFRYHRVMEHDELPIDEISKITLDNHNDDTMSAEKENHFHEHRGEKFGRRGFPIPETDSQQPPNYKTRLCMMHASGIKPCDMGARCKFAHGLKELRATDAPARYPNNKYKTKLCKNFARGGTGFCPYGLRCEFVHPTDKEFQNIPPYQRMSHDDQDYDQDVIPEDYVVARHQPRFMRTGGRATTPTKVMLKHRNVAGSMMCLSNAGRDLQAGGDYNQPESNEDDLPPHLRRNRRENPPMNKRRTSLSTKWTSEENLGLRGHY
# SUMO-activating enzyme [15] = target: T5, SUMO-activating enzyme; assay: blockers of SAE1/SAE2–UBC9 SUMO transfer – biochemical, HTRF, uHTS, primary screen (AID 2006); assay type: protein-complex assay
# [16] = target: Induced myeloid leukemia cell differentiation protein Mcl-1 (Homo sapiens, UniProt Q07820); assay type: functional
# Induced myeloid leukemia cell differentiation protein Mcl-1, sequence (Q07820 whole entry): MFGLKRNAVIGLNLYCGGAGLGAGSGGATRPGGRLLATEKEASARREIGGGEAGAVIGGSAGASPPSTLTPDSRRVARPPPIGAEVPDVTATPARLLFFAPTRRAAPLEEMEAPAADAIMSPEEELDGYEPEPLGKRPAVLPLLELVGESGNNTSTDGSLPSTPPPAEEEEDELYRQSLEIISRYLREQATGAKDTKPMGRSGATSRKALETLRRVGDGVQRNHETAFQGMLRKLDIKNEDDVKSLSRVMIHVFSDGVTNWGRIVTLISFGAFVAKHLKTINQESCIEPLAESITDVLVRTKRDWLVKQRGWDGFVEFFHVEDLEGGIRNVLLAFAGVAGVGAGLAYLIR
# [17] = target: Eukaryotic translation initiation factor 4E (Mus musculus, UniProt P63073); assay: blockers of eIF4G binding by eIF4E – biochemical, TR-FRET, dose response (AID 855); assay type: functional;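 further: potency for disrupting eIF4E binding to eIF4GI seen as loss of FRET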
# [18] = Luminescence Cell-Based Dose Retest to Confirm Inhibitors of Cancer Stem Cells. [Related pubchem assays (depositor defined):AID2717, AID2721]; assay type: functional; details: Homo sapiens
# [19] = protection from phage-mediated lysis, alamar blue read-out – E. coli UTI89, K1F phage, bacterial capsule biogenesis inhibitors (AID 488966); assay type: functional
# [20] = target: T2, Kappa-type opioid receptor; assay: SAR analysis of small molecule antagonists of the kappa opioid receptor via a luminescent beta-arrestin assay - Set 3. [Related pubchem assays (depositor defined):AID1777, AID1778, AID1785, AID1786, AID1966, AID2133, AID2136, AID2285, AID2495]; assay type: functional
# [21] = target: T2, Kappa-type opioid receptor; assay: SAR analysis of Antagonists of the Kappa Opioid Receptor (KOR) using an Image-Based Assay - Set 3. [Related pubchem assays (depositor defined):AID1777, AID1785]; assay type: functional
smiles,measurement,setting,value
COc1ccc2c(c1)c(=Cc1ccc(N(C)C)cc1)c1cc(-c3ccccc3)[n+](C)n12,IC50,[1],74.7 µM (inactive)
same,AC50,[2],> 56 µM (inactive)
same,IC50,Nonstructural protein 1,4.56 µM (active)
same,AC50,[3],3.93 µM (active)
same,IC50,[4],> 40.6 µM (inactive)
COC(=O)[C@@H](N)CS,IC50,[5],4.64 µM (active)
same,IC50,Perilipin-1/ABHD5,7.34 µM (active)
CCOC(=O)c1ccc(NC(=O)CSc2n[nH]c(-c3ccncc3)n2)cc1,IC50,Hexokinase HKDC1,12.1 µM (active)
CC1CCc2c(sc(NC(=O)c3ccc(Cl)cc3)c2C(=O)O)C1 (centres undefined),IC50,Tumor necrosis factor,4.41 µM (active)
same,IC50,[6],1.37 µM (active)
same,IC50,HEK293,5.2 µM (active)
CCC(C)(C)c1ccc(S(=O)(=O)NCc2ccc(C(=O)NCCN(Cc3ccccc3)C(C)C)cc2)cc1,IC50,Mu-type opioid receptor,> 32 µM (inactive)
same,IC50,[7],1.19 µM (active)
same,IC50,[8],> 32 µM (inactive)
same,IC50,[9],0.57 µM (active)
CCOc1ccc(-n2c(SCC(=O)Nc3ccc4c(c3)OCCO4)nc3c(c2=O)SCC3)cc1,IC50,[10],> 80 µM (inactive)
same,AC50,Cytochrome P450 2D6,8.91 µM (inconclusive)
C/N=C1\SC(CC(=O)Nc2ccc(F)cc2F)C(=O)N1/N=C/c1ccc(OC(F)F)c(OC)c1 (centres undefined),Absolute IC50 (XBP1),X-box-binding protein 1,10 µM
c1coc(-c2nn3c(-c4ccco4)nnc3s2)c1,IC50,Bcl-2-like protein 10,86.5 µM (inactive)
same,IC50,Estrogen receptor beta,24 µM (active)
O=C(Nc1ccc(N2C(=O)CCC2=O)c(Cl)c1)c1ccccn1,EC50,[11],6.89 µM (active)
CC1=C(C#N)C(=O)NC(=O)/C1=C\c1ccc(-c2ccc(C)cc2[N+](=O)[O-])o1,IC50,Leucine aminopeptidase,13.1 µM (active)
same,EC50,[12],36.4 µM (active)
same,IC50,SUMO-activating enzyme [13],5.46 µM (active)
same,EC50,[14],21.8 µM (active)
same,IC50,SUMO-activating enzyme [15],35.6 µM (active)
same,IC50,[16],2.68 µM (active)
same,IC50,[17],50 µM (inactive)
O=C(N/N=C/c1cccc(O)c1)c1ccc(COc2ccccc2Br)cc1,AC50,[18],4.82 µM (active)
same,IC50,[19],> 150 µM (active)
CCc1ccc(S(=O)(=O)NCc2ccc(C(=O)NCCN(CC)Cc3ccccc3)cc2)cc1,IC50,Mu-type opioid receptor,19.5 µM (inactive)
same,IC50,[8],> 32 µM (inactive)
same,IC50,[20],14.4 µM (inactive)
same,IC50,[21],1.99 µM (active)
